Data reported in patent US20140011826A1, “METABOTROPIC GLUTAMATE RECEPTOR GROUP I ANTAGONISTS FOR TREATMENT OF ABNORMAL UNION OF TISSUE” (priority 2011, published 2014).

Test system: post-operative intra abdominal adhesions
Assay: Post-operative intra abdominal adhesion formation in rat after laparotomy and musculoperitoneal incision
Type: in vivo
Procedure: Reduction in the occurrence of post-operative intra abdominal adhesions in rat by treatment with the mGluRgIa compound 2-methyl-6-(phenylethynyl)-pyridine (MPEP) at a dose of 12.5 mg/kg 12 male Sprague-Dawleys rats (Charles River Laboratories International, Sutzfeld, Germany), weighing between 250 to 300 g at the initiation of the procedure, were kept at a number of two individuals in one cage of type H3, lined with wood chips and housed in standardized conditions, at a constant room temperature (22° C.) with 12-hour light and dark cycles. All animals were provided free access to standard rodent chow, tap water, nesting material and libitum. All surgical procedures were performed under aseptic conditions in a dedicated surgical animal operating room. The animals were anesthetized using continuous inhalation isoflurane 1.5% to 4% in oxygen, numbered and randomly assigned to two groups of 6 individuals each: one treatment group and one vehicle group. After shaving and disinfection of the abdomen, a 50 mm long midline laparotomy was performed to gain access to the abdominal cavity. A 18 mm long sharp incision was then made through the musculoperitoneal tissue on the left lateral abdominal wall below the epigastric vessel parallel with the midline incision. The injury site was immediately closed with four single sutures places equidistantly using 5-0 polypropylene threat (Prolene; Ethicon, Johnson & Johnson, Somerville, N.J., USA). Just before closing the abdomen, the animals received either mGluRgIa (MPEP 45.35 mM in vehicle) at a dose of 12.5 mg MPEP/kg (treatment group), or vehicle (0.9% NaC1, 10 w % dimethylacetatamide, ˜50 mM hydrochloride, vehicle group), by injecting the solution into the abdominal cavity. The midline laparotomy was then closed in two layers continuous suture using 5-0 polypropylene for the abdomen and 4-0 for the skin. […] Formation of adhesions between the injury site and other uninjured structures within the abdominal cavity was macroscopically evaluated and quantified using the grading ‘0’ for absence of adhesions or ‘1’ for formed adhesions.

Question: Which “animals that had developed adhesions” value (male Sprague-Dawley rats, 12.5 mg MPEP/kg injected into the abdominal cavity just before closing, evaluated macroscopically after one week, vehicle group 4 of 6) does the source give for `Cc1cccc(C#Cc2ccccc2)n1` [MPEP, 2-methyl-6-(phenylethynyl)-pyridine] here?
Answer: Its value is 1 of the 6 animals.

Question: And the “adhesions at the scar of the incision (picture of open abdomen)” value (treated rat no. 3 of Example 1, Pic. 1, 18 mm incision on left lateral abdominal wall)?
Answer: The value was “no visible adhesions”.

Question: What about the “adhesion grading per animal (six animals, one digit each)” value (treatment group, 12.5 mg MPEP/kg into the abdominal cavity, one week after surgery, vehicle group=111100) of the same molecule?
Answer: The value was 100000.
